In PMC11582173, “Synthesis, cytotoxicity, anti-inflammatory, anti-metastatic and anti-oxidant activities of novel chalcones incorporating 2-phenoxy-N-arylacetamide and thiophene moieties: induction of apoptosis in MCF7 and HEP2 cells” (Naunyn-Schmiedeberg's Archives of Pharmacology, 2024):

System: AKT1 gene
Test: Real-time PCR, AKT1 gene expression
Type: cell-based, human
Settings: relative to untreated control (1)
Procedure: The expression level of the following six genes (Ki-67, Survivin, Interleukin-1 beta (IL-1B), Interleukin-6 (IL-6), Cyclooxygenase-2 (COX-2) and protein kinase B (AKT1)) was determined in MCF7 and HEP2 treated with the IC50 of compound 5c. The untreated cells were used as a negative control for comparison purposes. […] Ki-67 is a popular proliferation marker for human tumor cells. […] Survivin is an inhibitor of apoptotic protein (IAP) family member, which is essential for cell division. The lowering of the expression of survivin inhibited tumor development, triggered apoptosis, and made tumor cells more susceptible to radiation and chemotherapy (Albadari and Li [2023]). […] IL-1B is a pleiotropic mediator of inflammation, which is produced in response to a variety of stressors (Aarreberg et al. [2019]). […] IL-6 is a pro-inflammatory cytokine that plays a significant role in the proliferation and differentiation of human cells. It promotes the production of numerous proteins involved in acute inflammation (Uciechowski and Dempke [2020]). […]
The expression level of the following six genes (Ki-67, survivin, AKT1, IL-6, COX2, and IL-1B) was examined using real-time polymerase chain reaction (qPCR) (Mohamed et al. [2023a]). […] The cycle threshold (Ct) was determined automatically. […]

COc1ccc(NC(=O)COc2ccc(C=CC(=O)c3cccs3)cc2)cc1 [Compound 5c, N-(4-Methoxyphenyl)-2-(4-(3-oxo-3-(thiophen-2-yl)prop-1-en-1-yl)phenoxy)acetamide]
AKT1 expression folding (HEP2 cells treated with IC50 of 5c): 0.381±0.011 fold
AKT1 expression folding (MCF7 cells treated with IC50 of 5c): 0.402±0.068 fold
